# Reference: BindingDB's records for doi:10.1021/jm025558r (Friedrich-Alexander University, 2002)
# How the values were obtained:
# [1] = molecular target: 5-hydroxytryptamine receptor 1A (Sus scrofa); assay: Displacement of [3H]- 8-OH-DPAT from porcine 5-hydroxytryptamine 1A receptor
# [2] = molecular target: D(1) dopamine receptor (Sus scrofa); assay: Binding affinity for porcine Dopamine receptor D1 by [3H]-SCH- 23390 displacement.
structure (smiles),measurement,setting,value
"O=C(NCCCCN1CCN(c2cccc(Cl)c2Cl)CC1)c1cc2ccccc2[te]1 [Benzo[b]tellurophene-2-carboxylic acid {4-[4-(2,3-dichloro-phenyl)-piperazin-1-yl]-butyl}-amide]",Ki,[1],125 nM
same,Ki,[2],1400 nM
